This passage reports IC50 results from US20250270209A1 (INTERLINE THERAPEUTICS, INC., priority 2022, published 2025).

One test addresses LRRK2 wild type enzyme (Homo sapiens, UniProt Q5S007). As to the kind of experiment: Biochemical Assay: LRRK2 TR-FRET (LanthaScreen) kinase assay with LRRKtide substrate. To be noted: LRRK2 Inhibition, Table 8. The method in brief:
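Human wild-type LRRK2 (3 nM) preincubated 15 min with compound (11-point, 3-fold, top 10 μM), then reacted 120 min at 23 °C with 400 nM LRRKtide and 25 μM ATP, pH 8.0. Stopped with EDTA; Tb-anti-pLRRKtide TR-FRET read after 30 min.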

For test [1], the target named is T1, wild type LRRK2 overexpressed in recombinant HEK-293T cells (Homo sapiens, UniProt Q5S007).
T1 construct: host or cells: HEK293T (transient transfection with pCMV-LRRK2 WT plasmid)
As to the kind of experiment: pS935 LRRK2 Cell Assay (HTRF, phospho-LRRK2 Ser935). The class given is cell-based. Particulars: LRRK2 Inhibition, Table 8, 2 hours compound incubation. The method in brief:
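HEK-293T cells transiently transfected with wild-type LRRK2 for 24 h, plated overnight, then treated 2 h at 37° C with compound (top 10 μM, 3-fold, 9 doses, duplicates, 0.2% DMSO). Lysates probed overnight at 23° C by sandwich HTRF for pSer935; 665/615 nm ratio read.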

T1 sequence (Q5S007 whole entry): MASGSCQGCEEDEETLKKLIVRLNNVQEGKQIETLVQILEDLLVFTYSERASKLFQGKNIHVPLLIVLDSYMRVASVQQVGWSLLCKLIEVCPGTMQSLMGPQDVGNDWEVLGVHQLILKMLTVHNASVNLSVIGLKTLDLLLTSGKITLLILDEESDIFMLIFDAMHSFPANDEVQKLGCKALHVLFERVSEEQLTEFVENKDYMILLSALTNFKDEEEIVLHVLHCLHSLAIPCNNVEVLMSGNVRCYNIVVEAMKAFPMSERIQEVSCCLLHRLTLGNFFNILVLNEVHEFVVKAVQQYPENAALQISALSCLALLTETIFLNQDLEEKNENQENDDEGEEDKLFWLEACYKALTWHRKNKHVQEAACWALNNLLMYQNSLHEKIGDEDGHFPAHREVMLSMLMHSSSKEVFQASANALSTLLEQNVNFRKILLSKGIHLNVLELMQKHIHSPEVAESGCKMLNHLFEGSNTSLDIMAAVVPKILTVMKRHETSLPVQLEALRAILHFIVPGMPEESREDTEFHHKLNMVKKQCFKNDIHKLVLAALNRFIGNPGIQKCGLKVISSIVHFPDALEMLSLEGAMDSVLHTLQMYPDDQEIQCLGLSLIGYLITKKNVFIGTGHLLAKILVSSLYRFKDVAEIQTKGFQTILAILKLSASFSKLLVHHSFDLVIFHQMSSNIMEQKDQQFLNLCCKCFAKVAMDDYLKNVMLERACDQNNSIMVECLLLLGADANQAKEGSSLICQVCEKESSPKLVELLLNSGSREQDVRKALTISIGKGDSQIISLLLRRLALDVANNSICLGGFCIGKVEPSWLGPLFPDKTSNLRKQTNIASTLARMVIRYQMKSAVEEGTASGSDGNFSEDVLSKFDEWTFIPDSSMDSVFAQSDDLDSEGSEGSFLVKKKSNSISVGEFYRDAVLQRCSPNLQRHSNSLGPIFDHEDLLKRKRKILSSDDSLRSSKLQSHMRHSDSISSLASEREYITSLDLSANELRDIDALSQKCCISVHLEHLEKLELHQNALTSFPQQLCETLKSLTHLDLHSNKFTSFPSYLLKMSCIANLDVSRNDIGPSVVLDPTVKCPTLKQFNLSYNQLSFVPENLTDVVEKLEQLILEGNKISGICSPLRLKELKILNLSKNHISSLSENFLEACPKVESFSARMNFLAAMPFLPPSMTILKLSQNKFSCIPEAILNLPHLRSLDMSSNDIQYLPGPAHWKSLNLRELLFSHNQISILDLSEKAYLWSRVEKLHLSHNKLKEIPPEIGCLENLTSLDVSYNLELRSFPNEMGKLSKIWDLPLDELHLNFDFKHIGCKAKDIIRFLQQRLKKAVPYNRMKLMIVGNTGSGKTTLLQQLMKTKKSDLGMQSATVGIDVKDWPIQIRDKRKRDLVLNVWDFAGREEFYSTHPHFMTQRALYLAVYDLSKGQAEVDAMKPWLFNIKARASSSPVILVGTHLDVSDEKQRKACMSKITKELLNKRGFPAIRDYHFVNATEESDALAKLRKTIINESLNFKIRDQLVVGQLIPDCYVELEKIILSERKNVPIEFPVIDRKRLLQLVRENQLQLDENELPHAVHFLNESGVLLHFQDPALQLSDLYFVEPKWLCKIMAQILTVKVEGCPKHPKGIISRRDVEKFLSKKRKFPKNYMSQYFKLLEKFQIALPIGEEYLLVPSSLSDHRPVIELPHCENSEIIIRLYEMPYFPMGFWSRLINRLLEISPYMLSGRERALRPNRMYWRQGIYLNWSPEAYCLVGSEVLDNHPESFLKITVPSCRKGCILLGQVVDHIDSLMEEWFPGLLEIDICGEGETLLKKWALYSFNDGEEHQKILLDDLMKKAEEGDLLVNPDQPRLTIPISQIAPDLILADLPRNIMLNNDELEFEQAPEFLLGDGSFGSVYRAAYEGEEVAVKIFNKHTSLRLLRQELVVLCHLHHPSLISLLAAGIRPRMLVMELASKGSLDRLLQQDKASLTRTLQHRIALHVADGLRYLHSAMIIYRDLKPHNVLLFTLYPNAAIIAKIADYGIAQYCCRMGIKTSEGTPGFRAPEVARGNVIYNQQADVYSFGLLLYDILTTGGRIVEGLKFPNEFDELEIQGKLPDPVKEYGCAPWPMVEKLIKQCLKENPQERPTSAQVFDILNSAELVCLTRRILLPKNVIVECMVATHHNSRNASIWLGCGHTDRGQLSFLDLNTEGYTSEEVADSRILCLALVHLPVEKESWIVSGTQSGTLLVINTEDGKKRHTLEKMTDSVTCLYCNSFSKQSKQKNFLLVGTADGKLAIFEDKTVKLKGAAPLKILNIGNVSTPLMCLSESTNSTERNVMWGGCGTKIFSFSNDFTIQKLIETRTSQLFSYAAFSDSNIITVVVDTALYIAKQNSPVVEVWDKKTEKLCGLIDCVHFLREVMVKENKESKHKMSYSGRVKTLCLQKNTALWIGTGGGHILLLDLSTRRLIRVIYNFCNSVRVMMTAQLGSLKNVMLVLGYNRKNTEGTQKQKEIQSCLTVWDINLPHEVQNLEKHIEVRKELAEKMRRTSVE
Chain of LRRK2 wild type enzyme (Q5S007 whole entry): as above

Consider `C[C@@H]1C[C@H](n2c(C3CN(S(=O)(=O)C4CC4)C3)nc3cnc4ccc(C#N)cc4c32)CCO1` [Compound 66, 2-[1-(cyclopropanesulfonyl)azetidin-3-yl]-1-[(2R,4R)-2-methyloxan-4-yl]-1H-imidazo[4,5-c]quinoline-8-carbonitrile], for which the IC50 at LRRK2 wild type enzyme came out at 3.35 nM; in test [1], 525 nM.
`Cc1ncnc(C)c1NC(=O)Cc1nc2cnc3ccc(Cl)cc3c2n1[C@@H]1CCO[C@H](C)C1` [Compound 207, N-(4,6-dimethyl-5-pyrimidinyl){3-[(2R,4R)-2-methyltetrahydro-2H-pyran-4-yl]-12-chloro-3,5,8-triazatricyclo[7.4.0.0^2,6]trideca-1,4,6,8,10,12-hexaen-4-yl}acetamide]: the IC50 against LRRK2 wild type enzyme was determined as 0.333 nM; in test [1], 7.53 nM.
The corresponding values for `C[C@@H]1C[C@H](n2c(CC(=O)Nc3cncc(C#N)c3)nc3cnc4ccc(C#N)cc4c32)CCO1` [Compound 284, N-(5-cyano-3-pyridyl){3-[(2R,4R)-2-methyltetrahydro-2H-pyran-4-yl]-12-cyano-3,5,8-triazatricyclo[7.4.0.0^2,6]trideca-1,4,6,8,10,12-hexaen-4-yl}acetamide] are 0.538 nM and 20 nM.
The corresponding values for `C[C@@H]1C[C@H](n2c(CC(=O)N[C@H]3CCCc4cccnc43)nc3cnc4ccc(C#N)cc4c32)CCO1` [Compound 358, N-[(S)-5,6,7,8-tetrahydro-8-quinolyl]{3-[(2R,4R)-2-methyltetrahydro-2H-pyran-4-yl]-12-cyano-3,5,8-triazatricyclo[7.4.0.0^2,6]trideca-1(9),2(6),4,7,10,12-hexaen-4-yl}acetamide] are 0.602 nM and 24.5 nM.
Take `C[C@@H]1C[C@H](n2c(CC(=O)NC3(CO)CC3)nc3cnc4ccc(C#N)cc4c32)CCO1` [Compound 286, N-1-(hydroxymethyl)cyclopropyl{3-[(2R,4R)-2-methyltetrahydro-2H-pyran-4-yl]-12-cyano-3,5,8-triazatricyclo[7.4.0.0^2,6]trideca-1,4,6,8,10,12-hexaen-4-yl}acetamide]: the IC50 was determined as 1.45 nM on LRRK2 wild type enzyme and 907 nM in test [1].
In the case of `C[C@@H]1C[C@H](n2c(CC(=O)Nc3ccno3)nc3cnc4ccc(C#N)cc4c32)CCO1` [Compound 165, 2-{8-cyano-1-[(2R,4R)-2-methyloxan-4-yl]-1H-imidazo[4,5-c]quinolin-2-yl}-N-(1,2-oxazol-5-yl)acetamide], the IC50 was determined as 0.789 nM against LRRK2 wild type enzyme and 10.6 nM in test [1].
The corresponding values for `CNC(=O)Cc1nc2cnc3ccc(C#N)cc3c2n1[C@@H]1CCO[C@H](C)C1` [Compound 82, 2-{8-cyano-1-[(2R,4R)-2-methyloxan-4-yl]-1H-imidazo[4,5-c]quinolin-2-yl}-N-methylacetamide] are 0.83 nM and 81.8 nM.
Turning to `C[C@@H]1C[C@H](n2c(CC(=O)NC3(C(F)(F)F)CC3)nc3cnc4ccc(C#N)cc4c32)CCO1` [Compound 287, N-1-(trifluoromethyl)cyclopropyl{3-[(2R,4R)-2-methyltetrahydro-2H-pyran-4-yl]-12-cyano-3,5,8-triazatricyclo[7.4.0.0^2,6]trideca-1,4,6,8,10,12-hexaen-4-yl}acetamide], the IC50 against LRRK2 wild type enzyme worked out at 1.61 nM; in test [1], 118 nM.
As to `C[C@@H]1C[C@H](n2c(CC(=O)Nc3cc(C(F)(F)F)on3)nc3cnc4ccc(C#N)cc4c32)CCO1` [Compound 339, N-[5-(trifluoromethyl)-3-isoxazolyl]{3-[(2R,4R)-2-methyltetrahydro-2H-pyran-4-yl]-12-cyano-3,5,8-triazatricyclo[7.4.0.0^2,6]trideca-1(9),2(6),4,7,10,12-hexaen-4-yl}acetamide], the results for the IC50 (on LRRK2 wild type enzyme; in test [1]) were 1.13 nM and 11.6 nM, respectively.
As for `C[C@@H]1C[C@H](n2c(CC(=O)Nc3ncc(C(F)(F)F)cn3)nc3cnc4ccc(C#N)cc4c32)CCO1` [Compound 355, N-[5-(trifluoromethyl)-2-pyrimidinyl]{3-[(2R,4R)-2-methyltetrahydro-2H-pyran-4-yl]-12-cyano-3,5,8-triazatricyclo[7.4.0.0^2,6]trideca-1(9),2(6),4,7,10,12-hexaen-4-yl}acetamide], the IC50 at LRRK2 wild type enzyme was determined as 0.491 nM; in test [1], 3.92 nM.
The corresponding values for `C[C@@H]1C[C@H](n2c(CC(=O)Nc3ccn(C)c(=O)c3)nc3cnc4ccc(C#N)cc4c32)CCO1` [Compound 280, N-(1-methyl-2-oxo-1,2-dihydro-4-pyridyl){3-[(2R,4R)-2-methyltetrahydro-2H-pyran-4-yl]-12-cyano-3,5,8-triazatricyclo[7.4.0.0^2,6]trideca-1,4,6,8,10,12-hexaen-4-yl}acetamide] are 0.373 nM and 495 nM.
Take `C[C@@H]1C[C@H](n2c(CC(=O)Nc3cccnc3Cl)nc3cnc4ccc(C#N)cc4c32)CCO1` [Compound 324, N-(2-chloro-3-pyridyl){3-[(2R,4R)-2-methyltetrahydro-2H-pyran-4-yl]-12-cyano-3,5,8-triazatricyclo[7.4.0.0^2,6]trideca-1(9),2(6),4,7,10,12-hexaen-4-yl}acetamide]: the IC50 at LRRK2 wild type enzyme turned out to be 0.536 nM; in test [1], 3.16 nM.
For `C[C@@H]1C[C@H](n2c(CC(=O)Nc3cnn(C)c(=O)c3)nc3cnc4ccc(C#N)cc4c32)CCO1` [Compound 264, N-(1-methyl-6-oxo-1,6-dihydro-4-pyridazinyl){3-[(2R,4R)-2-methyltetrahydro-2H-pyran-4-yl]-12-cyano-3,5,8-triazatricyclo[7.4.0.0^2,6]trideca-1,4,6,8,10,12-hexaen-4-yl}acetamide], the IC50 at LRRK2 wild type enzyme worked out at 0.486 nM; in test [1], 74.4 nM.
As to `CC(C(=O)NCC1CC1)c1nc2cnc3ccc(C#N)cc3c2n1[C@@H]1CCO[C@H](C)C1` (stereo partly drawn) [Compound 369, N-cyclopropylmethyl2-{3-[(2R,4R)-2-methyltetrahydro-2H-pyran-4-yl]-12-cyano-3,5,8-triazatricyclo[7.4.0.0^2,6]trideca-1(13),2(6),4,7,9,11-hexaen-4-yl}propionamide], the IC50 on LRRK2 wild type enzyme turned out to be 13.8 nM; in test [1], 801 nM.
The corresponding values for `C[C@@H]1C[C@H](n2c(C3CC(=O)N([C@H](C)C4CC4)C3)nc3cnc4ccc(C#N)cc4c32)CCO1` (stereo partly drawn) [Compound 34, 2-{1-[(1R)-1-cyclopropylethyl]-5-oxopyrrolidin-3-yl}-1-[(2R,4R)-2-methyloxan-4-yl]-1H-imidazo[4,5-c]quinoline-8-carbonitrile] are 4.22 nM and 273 nM.
For `Cc1ncnc(C)c1NC(=O)Cc1nc2cnc3ccc(C#N)cc3c2n1[C@@H]1CCO[C@H](C)C1` [Compound 260, N-(4,6-dimethyl-5-pyrimidinyl){3-[(2R,4R)-2-methyltetrahydro-2pyran-4-yl]-12-cyano-3,5,8-triazatricyclo[7.4.0.0^2,6]trideca-1,4,6,8,10,12-hexaen-4-yl}acetamide], the IC50 against LRRK2 wild type enzyme amounted to 0.395 nM; in test [1], 30.4 nM.
Regarding `Cc1cc(CNC(=O)Cc2nc3cnc4ccc(C#N)cc4c3n2[C@@H]2CCO[C@H](C)C2)no1` [Compound 176, 2-{8-cyano-1-[(2R,4R)-2-methyloxan-4-yl]-1H-imidazo[4,5-c]quinolin-2-yl}-N-[(5-methyl-1,2-oxazol-3-yl)methyl]acetamide], the figures for the IC50 (against LRRK2 wild type enzyme; in test [1]) were 0.323 nM and 5.56 nM, respectively.
`COCCn1ccc(NC(=O)Cc2nc3cnc4ccc(C#N)cc4c3n2[C@@H]2CCO[C@H](C)C2)n1` [Compound 174, 2-{8-cyano-1-[(2R,4R)-2-methyloxan-4-yl]-1H-imidazo[4,5-c]quinolin-2-yl}-N-[1-(2-methoxyethyl)-1H-pyrazol-3-yl]acetamide]: the IC50 at LRRK2 wild type enzyme is 0.316 nM; in test [1], 5.35 nM.
Consider `CC(C)Oc1ccc(NC(=O)Cc2nc3cnc4ccc(C#N)cc4c3n2[C@@H]2CCO[C@H](C)C2)cn1` [Compound 273, N-(6-isopropoxy-3-pyridyl){3-[(2R,4R)-2-methyltetrahydro-2H-pyran-4-yl]-12-cyano-3,5,8-triazatricyclo[7.4.0.0^2,6]trideca-1,4,6,8,10,12-hexaen-4-yl}acetamide], for which the IC50 on LRRK2 wild type enzyme was 0.478 nM; in test [1], 5.59 nM.
The corresponding values for `C[C@@H]1C[C@H](n2c(CNS(=O)(=O)C3CC3)nc3cnc4ccc(C#N)cc4c32)CCO1` [Compound 22, N-({8-cyano-1-[(2R,4R)-2-methyloxan-4-yl]-1H-imidazo[4,5-c]quinolin-2-yl}methyl)cyclopropanesulfonamide] are 6.8 nM and 536 nM.
Turning to `C[C@@H]1C[C@H](n2c(CC(=O)Nc3ccc(OC(F)F)nc3)nc3cnc4ccc(C#N)cc4c32)CCO1` [Compound 293, N-(6-difluoromethoxy-3-pyridyl){3-[(2R,4R)-2-methyltetrahydro-2H-pyran-4-yl]-12-cyano-3,5,8-triazatricyclo[7.4.0.0^2,6]trideca-1,4,6,8,10,12-hexaen-4-yl}acetamide], the IC50 at LRRK2 wild type enzyme was 0.514 nM; in test [1], 9.81 nM.
As to `COc1nccc(F)c1NC(=O)Cc1nc2cnc3ccc(C#N)cc3c2n1[C@@H]1CCO[C@H](C)C1` [Compound 202, N-(4-fluoro-2-methoxy-3-pyridyl){3-[(2R,4R)-2-methyltetrahydro-2H-pyran-4-yl]-12-cyano-3,5,8-triazatricyclo[7.4.0.0^2,6]trideca-1,4,6,8,10,12-hexaen-4-yl}acetamide], the values for the IC50 (at LRRK2 wild type enzyme; in test [1]) were 0.364 nM and 8.58 nM, respectively.
The corresponding values for `C[C@@H]1C[C@H](n2c(CS(=O)(=O)NCC3CC3)nc3cnc4ccc(C#N)cc4c32)CCO1` [Compound 55, 1-{8-cyano-1-[(2R,4R)-2-methyloxan-4-yl]-1H-imidazo[4,5-c]quinolin-2-yl}-N-(cyclopropylmethyl)methanesulfonamide] are 2.3 nM and 272 nM.

By IC50 is commonly meant the concentration needed to halve the response being measured.
